Measurements: patent publication US8288375B2, “Fungicidal bicyclic pyrazoles” (E.I. du Pont de Nemours and Company, priority 2007, dated 2012)

Legend:
Sclerotinia sclerotiorum = assay: Test M: cucumber white mold, test suspension sprayed on cucumber seedlings, disease rating; type: in vivo; details: 200 ppm test suspension
Excerpt: General protocol for preparing test suspensions for Tests A-M: The test compounds were first dissolved in acetone in an amount equal to 3% of the final volume and then suspended at the desired concentration (in ppm) in acetone and purified water (50/50 mix) containing 250 ppm of the surfactant Trem® 014 (polyhydric alcohol esters). The resulting test suspensions were then used in Tests A-M. Spraying a 200 ppm test suspension to the point of run-off on the test plants was the equivalent of an application rate of 500 g/ha.
The test suspension was sprayed to the point of run-off on cucumber seedlings. The following day the seedlings were inoculated with a spore suspension of Sclerotinia sclerotiorum (the causal agent of cucumber white mold) and incubated in saturated atmosphere at 24° C. for 72 h, and then moved to a growth chamber at 24° C. for 3 additional days, after which time disease ratings were made.
Results for Tests A-M are given in Table A. In the table, a rating of 100 indicates 100% disease control and a rating of 0 indicates no disease control (relative to the controls). A dash (-) indicates no test results. All results are for 200 ppm test suspension except where followed by “*” which indicates 40 ppm or by “**” which indicates 10 ppm.

[1] = tested on: Erysiphe graminis f. sp. tritici; assay: Test A: wheat powdery mildew, test suspension sprayed on wheat seedlings, disease rating; type: in vivo; details: 200 ppm test suspension, 100 = 100% disease control, 0 = no control
Fusarium graminearum = assay: whole plant or invertebrate; type: in vivo
Septoria nodorum = assay: Test D: wheat glume blotch, test suspension sprayed on wheat seedlings, disease rating; type: in vivo; details: 200 ppm test suspension
Septoria tritici = assay: Test E: wheat leaf blotch, test suspension sprayed on wheat seedlings, disease rating; type: in vivo; details: 200 ppm test suspension;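 further: 200 ppm unless marked * meaning 40 ppm or ** meaning 10 ppm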
Plasmopara viticola = assay: Test K: grape downy mildew, grape seedlings inoculated and then sprayed, disease rating; type: in vivo; details: 200 ppm test suspension
Rhizoctonia oryzae = assay: Test I: turf brown patch, test suspension sprayed on creeping bent grass seedlings, disease rating; type: in vivo; details: 200 ppm test suspension
Phytophthora infestans = assay: whole plant or invertebrate; type: in vivo; details: for Test J disease control rating: 200 ppm test suspension
Pythium aphanidermatum = assay: Test L: bluegrass pythium blight, test suspension sprayed on bluegrass seedlings, disease rating; type: in vivo; details: 200 ppm test suspension;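 further: 200 ppm unless marked * meaning 40 ppm or ** meaning 10 ppm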
Botrytis cinerea = assay: Test H: tomato Botrytis, test suspension sprayed on tomato seedlings, disease rating; type: in vivo; details: 200 ppm test suspension
[2] = tested on: Puccinia recondite f sp. tritici; assay: Test B: wheat leaf rust, test suspension sprayed on wheat seedlings, disease rating; type: in vivo; details: 200 ppm test suspension;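 further: 200 ppm unless marked * meaning 40 ppm or ** meaning 10 ppm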
[3] = tested on: Colletotrichum orbiculare; assay: Test F: cucumber Colletotrichum anthracnose, test suspension sprayed on cucumber seedlings, disease rating; type: in vivo; details: 200 ppm test suspension
Alternaria solani = assay: Test G: tomato early blight, test suspension sprayed on seedlings, disease rating; type: in vivo; details: Alternaria solani, 168 h; 200 ppm test suspension;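 further: 200 ppm unless marked * meaning 40 ppm or ** meaning 10 ppm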

SMILES	Test M disease control rating (Sclerotinia sclerotiorum)	Test A disease control rating [1]	Test D disease control rating (Septoria nodorum)	Test E disease control rating (Septoria tritici)	Test K disease control rating (Plasmopara viticola)	Test I disease control rating (Rhizoctonia oryzae)	Test J disease control rating (Phytophthora infestans)	Test L disease control rating (Pythium aphanidermatum)	Test H disease control rating (Botrytis cinerea)	Test B disease control rating [2]	Test F disease control rating [3]	other results
COCC(C)Nc1nccc(-c2c(-c3ccc(F)cc3)nn3c2CCCC3)n1 (centres unmarked) [compound 1]	99%	94%	98%	98%	0%	41%	100%	100%	91%	100%	96%	Test C disease control rating (Fusarium graminearum; 200 ppm test suspension): 100%
CCC(C)Nc1nccc(-c2c(-c3ccc(F)cc3)nn3c2CCCC3)n1 (centres unmarked) [compound 2]	0%	0%	98%	97%	0%	31%	47%	100%	92%	98%	85%	–
Fc1ccc(-c2nn3c(c2-c2ccnc(NC4CC4)n2)CCCN3)cc1 [Compound 131, N-cyclopropyl-4-[2-(4-fluorophenyl)-4,5,6,7-tetrahydropyrazolo[1,5-b]pyridazin-3-yl]-2-pyrimidinamine]	–	–	–	–	0%	–	–	–	–	–	–	pest or weed control at 200 ppm ([1]; Blumeria graminis, 192 h): 96%; pest or weed control at 200 ppm (Fusarium graminearum; Fusarium graminearum, in Triticum aestivum, 192 h, read-out: Test C disease control rating): 100%; pest or weed control at 200 ppm (Septoria nodorum; Parastagonospora nodorum, 216 h): 87%; melting point: 184 to 187 °C; pest or weed control at 200 ppm (Rhizoctonia oryzae; Waitea circinata, in Agrostis stolonifera, 120 h): 57%; pest or weed control at 200 ppm (Phytophthora infestans; Phytophthora infestans, in Solanum lycopersicum, 120 h, read-out: Test J disease control rating): 97%; pest or weed control at 200 ppm (Pythium aphanidermatum; Pythium aphanidermatum, 120 h): 100%; pest or weed control at 200 ppm (Botrytis cinerea; Botrytis cinerea, 120 h): 9%; pest or weed control at 200 ppm ([2]; Puccinia, 192 h): 100%; pest or weed control at 200 ppm ([3]; Colletotrichum orbiculare, 144 h): 58%; pest or weed control at 200 ppm (Alternaria solani): 81%
